These results are taken from article PMC9146374, “Extra Virgin Olive Oil Secoiridoids Modulate the Metabolic Activity of Dacarbazine Pre-Treated and Treatment-Naive Melanoma Cells” (Molecules, 2022).

The term IC50 denotes the midpoint of a concentration-inhibition curve. Usually viability stands for a per cent measure of how many cells are alive, often set against a control.

Series [1] deals with HaCaT immortalized keratinocytes. The series can be described thus: MTS assay of metabolic activity (cell viability), 48 h exposure, HaCaT cells. It is filed as cell-based. The conditions noted are these: ± SEM, DTIC applied up to 1000 µM, italic values extrapolated; for IC50: Homo sapiens. Here is the method: (§1) Biological activity upon treatment with EVOO-PEs, DTIC, OCEIN, and OCAL was evaluated using an MTS assay in in vitro experimental models, including the A375 and A375M cancer cell lines and HaCaT immortalized cell line. […] Due to the fast cell growth rate, a longer incubation period or denser initial seeding caused the overgrowth of untreated cells. In comparison, a shorter incubation period or lower initial density caused the effect of the test substances to be more difficult to detect. Therefore, the experiments were performed within a 48-hour timeframe. In addition, to avoid the misinterpretation of the results, we checked whether the vehicle, which was DMSO for the test substances, had any effect on metabolic activity by exposing each cell type to 0.2 and 0.4% DMSO, i.e., to the highest final DMSO concentrations achieved with the highest final concentrations of test substances. […] Accordingly, the effects of the test substances were determined as relative biological activities (in terms of cell viability, i.e., cell survival) compared to the untreated cells (controls). The cells were treated with a series of dilutions made by diluting full strength (100%) EVOO-PE to concentrations of 0.025–0.400 % (v/v) of EVOO-PE in the medium.
(§2) Cells were grown in complete cell culture media, consisting of RPMI 1640, 2 mmol/L glutamine, 10% heat-inactivated foetal bovine serum (FBS), penicillin (100 IU/mL; 1 IU 67.7 µg/mL), and streptomycin (100 µg/mL). Cultures were maintained in a moisturized atmosphere with 5% CO2 at 37 °C and 95% relative humidity. All experiments were performed on cells between passages 4 and 8. The biological activity of the three EVOO-Pes, DTIC, OCEIN, and OCAL, as well as biological activity of the three EVOO-PEs following 6 h pre-incubation with DTIC was determined using a CellTiter 96®AQueous One Solution Cell Proliferation Assay. In short, 100 µL of cell cultures was seeded into 96-well tissue culture plates (A375 and HaCaT at a concentration of 2 × 10^3 cells/well, A375M at 7 × 10^3 cells/well). The next day, the medium was aspirated and media containing different concentrations of compounds were added to each well. All test compounds except DTIC were initially dissolved in DMSO and serially diluted in culture medium to obtain the final concentrations. DTIC was initially dissolved in culture medium, warmed to 37 °C, activated during 1 h exposure to light, and diluted in culture medium. The controls contained the test model cells and culture medium (containing either the complete medium or the DMSO in the highest final concentration, 0.2% and 0.4%) but no test compounds. The cells were incubated for 48 h before biological activity was measured. When investigating the combined effect, we exposed cells to DTIC for 6 h, removed the medium, and exposed the cells to medium containing EVOO-PE extracts for the next 24 h. In addition to the non-treated cells, the controls for experiments with DTIC pre-incubation were cells that had been exposed to DTIC for 6 h and cultured in a complete medium afterwards (without EVOO-PE). After incubation, media were aspirated, and 90 µL of serum-free medium containing MTS was added, according to the manufacturer’s instructions. After 1.5 h of incubation in the dark, the absorbance was measured at a wavelength of 490 nm using a microplate reader, Victor2-1420 Multilabel Counter (PerkinElmer, Yokohama, Japan). A negative control (medium without cells) was used as a blank. All experiments were performed in hexaplicate.
(§3) The GraphPad Prism software version 9.0.0 for Windows (GraphPad Software, San Diego, CA, USA), was used for the determination of inhibitory concentration as well as for statistical analysis. The normality of the data distribution was accessed using Kolmogorov–Smirnov and Shapiro–Wilk tests. The IC60 and IC50 values (concentrations that reduced cell growth to 60% or 50% of the initial value, respectively) were determined using a nonlinear regression curve fit. […]

Series [2] has as its system A375M metastatic melanoma cell line. Put plainly: MTS assay of metabolic activity (cell viability), 48 h exposure, A375M cells. It is filed as cell-based, human. As to conditions: for effect on A375M cells: Figure S5b. As for the experimental part:
as §1
as §2, with “The controls contained the test model cells and culture medium (containing either the complete medium or the DMSO in the highest final concentration, 0.2% and 0.4%) but no test compounds.” left out, “When investigating the combined effect, we exposed cells to DTIC for 6 h, removed the medium, and exposed the cells to medium containing EVOO-PE extracts for the next 24 h. In addition to the non-treated cells, the controls for experiments with DTIC pre-incubation were cells that had been exposed to DTIC for 6 h and cultured in a complete medium afterwards (without EVOO-PE). After incubation, media were aspirated, and 90 µL of serum-free medium containing MTS was added, according to the manufacturer’s instructions.” left out, “A negative control (medium without cells) was used as a blank. All experiments were performed in hexaplicate.” left out
(Tetrazolium assays rely on reduction of a dye to a coloured formazan, in cell work by metabolically active cells.)

The next series relates to A375 cells. As to conditions: cited from earlier work; for IC50: homemade isolated OCAL purified to 95%.
The test system of the next series is A375 melanoma cell line. Put plainly: MTS assay of metabolic activity (cell viability), 48 h exposure, A375 cells. The conditions noted are these: for IC60 / IC50: A375, 48 h, MTS, ± SEM; for IC60: concentration decreasing biological activity to 60%. It is filed as cell-based, human. As for the experimental part:
as §1, §2, §3

For another series, the system named is 501Mel melanoma cells. Set-up: method as in earlier work. As to conditions: ref 22 (Carpi et al.); read-out: IC50 of OCEIN on 501Mel melanoma cells; cited from earlier work.

Values joined by “and” are separate entries in the source; they are usually repeats but may differ in a detail not shown here. Identical values can stand only once. Like-named read-outs stand apart in the source and are kept apart here. Some results are limits rather than exact numbers.

In the case of `C/C=C(/C=O)[C@@H](CC=O)CC(=O)OCCc1ccc(O)cc1` [OCAL, oleocanthal], the IC50 in series [1] is 130 ± 3.21 µM; in the series with A375 cells (ref 24 (Fogli et al.)) it was 13.6 µM; with A375 cells (ref 25 (Gu et al.)), ~20 µM; in the series with A375 melanoma cell line it was 67.5 ± 1.86 µM; in the series with A375 melanoma cell line (Homo sapiens, A-375, 48 h), 67 µM. Further, the IC60 in series [1] was 112.827 ± 2.904 µM; with A375 melanoma cell line it was 58.488 µM and 58.488 ± 1.836 µM. Further, the “effect on A375M cells” value in series [2] is given as “failed to provoke any effect”. In addition, the “viability compared to control” value with A375 cells (60 µM OCAL (highest applied), cell line not given, ref 25 (Gu et al.)) is listed as ~ 80%. The viability at 60 µM with A375 melanoma cell line (Homo sapiens, A-375, 60 µM OCAL, cell line not given, read-out: viability compared to control) was ~80%.
Consider `CC=C(C=O)C(CC=O)CC(=O)OCCc1ccc(O)c(O)c1` (centres unmarked) [OCEIN, oleacein], for which the IC50 was 114 ± 2.3 µM in series [1]; 82 µM in the series on 501Mel melanoma cells; 113 ± 4.92 µM with A375 melanoma cell line; 112 µM with A375 melanoma cell line (Homo sapiens, A-375, 48 h). Further, the IC60 in series [1] was 103.061 ± 2.086 µM; with A375 melanoma cell line, 101.052 µM and 101.052 ± 4.610 µM. Besides, the “effect on A375M cells” value in series [2] was “failed to provoke any effect”.
For `CN(C)/N=N/c1[nH]cnc1C(N)=O` [DTIC, dacarbazine], the IC50 in series [1] is > 1000 µM; in series [2] (Homo sapiens, A375M, ± SEM, DTIC applied up to 1000 µM, interpret with caution) it was 872 ± 62.2 µM; with A375 melanoma cell line (Homo sapiens, A-375, 48 h) it was 362 µM. Besides, the IC60 is on record as 1137 ± 93.752 µM in series [1]; 709.780 ± 99.634 µM in series [2] (A375M, ± SEM, DTIC applied up to 1000 µM, interpret with caution); 214.358 ± 13.449 µM with A375 melanoma cell line.
